According to article PMC10298926, “Biophysical Characterization of the Binding Mechanism between the MATH Domain of SPOP and Its Physiological Partners” (International Journal of Molecular Sciences, 2023):
Where a SMILES comes first, the peptide text is derived from it. Where no end group is shown, it is not given here. The star is where a group is joined. Dansyl = CN(C)c1cccc2c(S(=O)(=O)*)cccc12

Experiments:
SPOP MATH WT [1] = target: T1, SPOP MATH WT (Homo sapiens, UniProt O43791); experiment: Equilibrium binding, FRET (Trp to dansyl), fluorescence titration; settings: read-out: Equilibrium KD; dansylated peptide 0 to 40 µM; constant SPOP MATH WT (2 µM in methods, 1 µM in results); excitation 280 nm, emission 300-400 nm; 298 K; hyperbolic fit
Excerpt: The MATH domain of SPOP exerts its functions by specifically recognizing different substrates and, therefore, acting as an adaptor module between SPOP and its physiological ligands. In an effort to provide a complete characterization of SPOP MATH binding mechanisms, we investigated the recognition of three peptides mimicking a specific region of the substrates Puc (region 96–105), MacroH2A (region 166–179), and PTEN (region 354–368). […] Moreover, the three-dimensional structure of SPOP MATH in complexes with each of the peptides has been previously reported (3HQH, 3HQL, and 4OV1 PDB entries, respectively). Similar to previous work on other protein–protein recognition modules, we employed peptides carrying a covalently attached N-terminal dansyl fluorophore. Binding was then followed by measuring the FRET (Forster resonance energy transfer) between the three tryptophan residues of the SPOP MATH domain (donor) and the dansyl group of the peptides (acceptor).
To address the equilibrium binding affinity of SPOP MATH and its substrates, a fixed concentration of the protein (1 µM) was challenged with increasing peptide concentrations. In all cases, the fluorescence-monitored transition returned a hyperbolic behavior as described in the Section 4, which allowed estimating a dissociation constant of 1.4 ± 0.4 µM, 1.6 ± 0.2 µM, and 5.5 ± 0.5 µM for Puc, MacroH2A, and PTEN, respectively (Figure 2). These values appear partly consistent with what was previously reported by Zhuang et al. by using surface plasmon resonance. […]
Equilibrium binding experiments were performed on a Fluoromax-4 single-photon-counting spectrofluorometer (Jobin-Yvon, Newark, NJ, USA). The SPOP MATH domain was excited at 280 nm and emission spectra were recorded between 300 and 400 nm, at increasing dansylated peptide concentrations. […]

SPOP MATH WT [2] = target: T1, SPOP MATH WT; experiment: Stopped-flow pseudo-first-order binding kinetics; settings: 298 K; for kon: stopped-flow, 2 µM MATH domain, dansylated peptide 2 to 10 µM (Puc, MacroH2A) or 2 to 40 µM (PTEN), 50 mM sodium-HEPES, pH 7.2 (for ionic strength series), five traces averaged, slope of kobs vs peptide
Procedure: (§1) To infer the mechanism of recognition of SPOP MATH, we resorted to performing time-resolved kinetic experiments. SPOP MATH was rapidly mixed with increasing concentrations of dansylated peptides (from 2 to 10 µM for Puc and MacroH2A, and from 2 to 40 µM for PTEN) in a stopped-flow apparatus at 298 K. The binding traces obtained by monitoring the time-resolved fluorescence were satisfactorily fitted to a single exponential equation, allowing calculating the observed rate constants kobs at different peptide concentrations. We then plotted the kobs values over the concentration of dansylated peptide and fitted the data to a simple linear function equation: kobs=kon Peptide+koff where kobs is the observed rate constant; kon and koff are the microscopic association and dissociation rate constants, respectively (Figure 2). The slope and y-axis intercept represent the microscopic association and dissociation rate constant, respectively. To minimize the error associated with the indirect measurement of the dissociation rate constant, we carried out displacement experiments to determine the koff values. The displacement experiments were designed by mixing the preformed complex SPOP MATH-dansylated peptides with a high excess of nondansylated peptide, as described in the Section 4. […] On the basis of these observations, it is possible to conclude that, in the case of binding to MacroH2A and PTEN, there is the presence of an additional step, which escapes detection by stopped-flow experiments and is likely to be negligible in the case of Puc. […] We note that such a case closely resembles the presence of a so-called burst phase, which is frequently observed in protein-folding studies.
Binding kinetic experiments were performed on an Applied Photophysics DX-17MV stopped-flow apparatus (Applied Photophysics, Leatherhead, UK). Pseudo-first-order binding experiments were performed by mixing a constant concentration (2 μM) of MATH domain with increasing dansylated peptides concentrations, from 2 to 10 μM of Puc and MacroH2A, and 2 to 40 µM of PTEN. The samples were excited at 280 nm, and the emission fluorescence was recorded by using a bandpass 320 nm cutoff filter. The experiments were performed at 298 K. For ionic strength dependence with Puc and MacroH2A, the buffers used were 50 mM sodium-HEPES, pH 7.2, supplemented with 50 mM, 100 mM, 200 mM, or 500 mM of sodium chloride (NaCl). For the PTEN binding salt dependence experiments, lower concentrations of salt were added for the previous buffer list mentioned (10 mM, 25 mM, and 50 mM of sodium chloride). For each acquisition, five traces were collected, averaged, and satisfactorily fitted to a single exponential equation.

SPOP MATH WT [3] = target: T1, SPOP MATH WT; experiment: Stopped-flow displacement; format: binding; settings: preincubated complex (both 8 µM) mixed with 50 μM nondansylated peptide, 298 K, average of five single traces
Procedure: as §1
Target sequence in this assay (O43791 1-182): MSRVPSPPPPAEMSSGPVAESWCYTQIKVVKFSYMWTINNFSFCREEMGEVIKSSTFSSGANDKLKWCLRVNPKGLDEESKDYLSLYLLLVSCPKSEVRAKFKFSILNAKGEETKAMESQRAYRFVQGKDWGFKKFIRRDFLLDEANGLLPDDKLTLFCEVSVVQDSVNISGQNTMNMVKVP
Microscopic dissociation rate constants (koff) were directly measured by performing displacement experiments on an Applied Photophysics DX-17MV stopped-flow apparatus (Applied Photophysics). […] The samples were excited at 280 nm and fluorescence emission was collected by using a 330 ± 30 nm bandpass filter. […] The observed rate constants were calculated from the average of five single traces. […]

[4] = target: engineered MATH domain of SPOP (Speckle-type POZ protein), residues 1-182, cysteine residues substituted to serine (UniProt O43791); experiment: stopped-flow fluorescence binding kinetics; pseudo-first-order; 2 µM MATH mixed with dansylated peptide, 2 to 10 µM Puc and MacroH2A, 2 to 40 µM PTEN; excitation 280 nm; 298 K; kobs against peptide concentration fitted to a line, kon from the slope
[5] = target: engineered MATH domain of SPOP (Speckle-type POZ protein), residues 1-182, cysteine residues substituted to serine (UniProt O43791); experiment: other fluorescence titration; equilibrium; FRET from the tryptophans of SPOP MATH (excited at 280 nm, emission 300-400 nm) to the dansyl of the peptide; MATH at constant concentration (2 µM in the methods, 1 µM in the results), dansylated peptide 0 to 40 µM; 298 K; hyperbolic fit
[6] = target: engineered MATH domain of SPOP (Speckle-type POZ protein), residues 1-182, cysteine residues substituted to serine (UniProt O43791); experiment: stopped-flow fluorescence displacement; preincubated complex of MATH domain and dansylated peptide (both 8 µM) mixed with an excess of nondansylated peptide (50 µM); 298 K; same buffer as the binding experiments; single exponential decay gives koff
[7] = target: engineered MATH domain of SPOP (Speckle-type POZ protein), residues 1-182, cysteine residues substituted to serine (UniProt O43791); experiment: stopped-flow fluorescence binding kinetics + other: stopped-flow fluorescence displacement; KD calculated by combining kon of the pseudo-first-order plots with koff of the displacement experiments; 298 K

| Molecule | Kd (SPOP MATH WT [1]) [nM] | kon (SPOP MATH WT [2]) [µM⁻¹ s⁻¹] | koff (SPOP MATH WT [3]) [s⁻¹] | Kd (SPOP MATH WT [2]; read-out: Kinetics KD, WT, from kon (pseudo-first-order) and koff (displacement)) [µM] | kon [4] [M⁻¹ s⁻¹] | Kd [5] [µM] | koff [6] [s⁻¹] | Kd [7] [µM] |
| --- | --- | --- | --- | --- | --- | --- | --- | --- |
| C[C@H](NC(=O)[C@H](C)NC(=O)[C@H](CCCCN)NS(=O)(=O)c1cccc2c(N(C)C)cccc12)C(=O)N[C@@H](CO)C(=O)N[C@@H](C)C(=O)N[C@@H](CC(=O)O)C(=O)N[C@@H](CO)C(=O)N[C@H](C(=O)N[C@H](C(=O)N[C@@H](CCC(=O)O)C(=O)NCC(=O)N[C@H](C(=O)N1CCC[C@H]1C(=O)N[C@@H](C)C(=O)N[C@@H](CC(=O)O)C(=O)O)[C@@H](C)O)[C@@H](C)O)[C@@H](C)O [MacroH2A] (HELM PEPTIDE1{[CN(C)c1cccc2c(S(=O)(=O)[*:2])cccc12].K.A.A.S.A.D.S.T.T.E.G.T.P.A.D}$$$$V2.0) | 1600 ± 200 | 3 ± 2 | 21 ± 2 | – | – | – | – | – |
| CC(C)[C@H](NC(=O)[C@H](CO)NC(=O)[C@@H](NC(=O)[C@H](CO)NC(=O)[C@H](CO)NC(=O)[C@H](CO)NC(=O)[C@H](C)NC(=O)[C@H](CCC(=O)O)NC(=O)[C@@H]1CCCN1C(=O)[C@H](CC(N)=O)NC(=O)[C@H](CO)NC(=O)[C@@H]1CCCN1S(=O)(=O)c1cccc2c(N(C)C)cccc12)[C@@H](C)O)C(=O)N[C@H](C(=O)N1CCC[C@H]1C(=O)N[C@@H](CC(=O)O)C(=O)O)[C@@H](C)O [PTEN] (HELM PEPTIDE1{[CN(C)c1cccc2c(S(=O)(=O)[*:2])cccc12].P.S.N.P.E.A.S.S.S.T.S.V.T.P.D}$$$$V2.0) | 4000 ± 1000 | 5.5 ± 0.5 | 113 ± 1 | 20.8 ± 0.4 | – | – | – | – |
| Dansyl-PSNPEASSSTSVTPD [dansylated peptide mimicking PTEN (region 354-368)] | – | – | – | – | 5.5e+06 | 5.5 | 113 | – |
| Dansyl-KAASADSTTEGTPAD [dansylated peptide mimicking MacroH2A (region 166-179)] | – | – | – | – | 3e+06 | – | 21 | 7.8 |
